Source: US11912703B2, “6-azaindole compounds” (BRISTOL-MYERS SQUIBB COMPANY, priority 2017, dated 2024)
Read-outs that look alike come from different tables or passages of the source.

Legend:
human TLR7 = human TLR7 (Homo sapiens (Human), UniProt Q9NYK1); assay: TLR7 inhibition reporter assay (HEK-Blue SEAP); type: cell-based; details: HEK-Blue cells overexpressing human TLR7, gardiquimod 7.5 μM stimulation
human TLR8 = human TLR8 (Homo sapiens (Human), UniProt Q9NR97); assay: TLR8 inhibition reporter assay (HEK-Blue SEAP);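 also: SEAP driven by IFN-β minimal promoter with five NF-κB and AP-1 sites, compounds tested 0.05 nM to 50 µM, 22 h incubation, inhibition relative to agonist plus DMSO wells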
human TLR9 = human TLR9 (Homo sapiens (Human), UniProt Q9NR96); assay: TLR9 inhibition reporter assay (HEK-Blue SEAP);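 also: SEAP driven by IFN-β minimal promoter carrying five NF-κB and AP-1 sites, 22 h at 37 °C, compounds 0.05 nM–50 µM, inhibition scaled between agonist-plus-DMSO and reference-inhibitor wells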
[1] = read-out: TLR8 IC50; HEK-Blue cells overexpressing human TLR8, R848 15.9 μM stimulation, SEAP reporter
[2] = read-out: TLR9 IC50; HEK-Blue cells overexpressing human TLR9, ODN2006 5 nM stimulation, SEAP reporter
[3] = read-out: TLR8 IC50; HEK-Blue cells overexpressing human TLR8; R848 15.9 μM stimulation; SEAP reporter
[4] = read-out: TLR9 IC50; HEK-Blue cells overexpressing human TLR9; ODN2006 5 nM stimulation; SEAP reporter

human TLR7, sequence (Q9NYK1 27-1049): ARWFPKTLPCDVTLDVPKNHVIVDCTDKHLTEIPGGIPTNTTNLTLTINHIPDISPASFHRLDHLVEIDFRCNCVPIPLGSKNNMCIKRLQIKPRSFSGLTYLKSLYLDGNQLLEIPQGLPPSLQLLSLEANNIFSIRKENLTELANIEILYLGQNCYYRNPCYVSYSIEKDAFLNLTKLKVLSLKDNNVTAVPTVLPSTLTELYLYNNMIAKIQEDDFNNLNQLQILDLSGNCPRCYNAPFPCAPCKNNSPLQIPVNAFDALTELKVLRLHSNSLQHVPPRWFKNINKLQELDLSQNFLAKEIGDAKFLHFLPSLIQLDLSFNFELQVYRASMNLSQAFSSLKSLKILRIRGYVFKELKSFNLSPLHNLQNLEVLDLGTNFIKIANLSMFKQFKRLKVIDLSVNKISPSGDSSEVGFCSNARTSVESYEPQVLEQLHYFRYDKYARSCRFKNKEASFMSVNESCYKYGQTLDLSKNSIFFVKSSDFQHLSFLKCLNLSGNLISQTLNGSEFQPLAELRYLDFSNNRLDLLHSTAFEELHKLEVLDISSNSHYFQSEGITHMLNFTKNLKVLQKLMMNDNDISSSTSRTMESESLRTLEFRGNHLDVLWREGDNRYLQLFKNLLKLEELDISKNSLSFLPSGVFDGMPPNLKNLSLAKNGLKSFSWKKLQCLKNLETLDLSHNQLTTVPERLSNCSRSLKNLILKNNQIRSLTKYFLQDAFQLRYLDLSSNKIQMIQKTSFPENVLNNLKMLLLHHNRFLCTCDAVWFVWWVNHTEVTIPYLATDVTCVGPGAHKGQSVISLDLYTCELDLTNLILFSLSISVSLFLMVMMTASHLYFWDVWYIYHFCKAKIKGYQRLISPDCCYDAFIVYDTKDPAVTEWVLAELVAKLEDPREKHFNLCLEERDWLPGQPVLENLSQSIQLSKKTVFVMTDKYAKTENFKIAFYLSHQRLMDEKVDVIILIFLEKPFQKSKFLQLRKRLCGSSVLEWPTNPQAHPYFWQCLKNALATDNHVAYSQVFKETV
human TLR8, sequence (Q9NR97 27-1041): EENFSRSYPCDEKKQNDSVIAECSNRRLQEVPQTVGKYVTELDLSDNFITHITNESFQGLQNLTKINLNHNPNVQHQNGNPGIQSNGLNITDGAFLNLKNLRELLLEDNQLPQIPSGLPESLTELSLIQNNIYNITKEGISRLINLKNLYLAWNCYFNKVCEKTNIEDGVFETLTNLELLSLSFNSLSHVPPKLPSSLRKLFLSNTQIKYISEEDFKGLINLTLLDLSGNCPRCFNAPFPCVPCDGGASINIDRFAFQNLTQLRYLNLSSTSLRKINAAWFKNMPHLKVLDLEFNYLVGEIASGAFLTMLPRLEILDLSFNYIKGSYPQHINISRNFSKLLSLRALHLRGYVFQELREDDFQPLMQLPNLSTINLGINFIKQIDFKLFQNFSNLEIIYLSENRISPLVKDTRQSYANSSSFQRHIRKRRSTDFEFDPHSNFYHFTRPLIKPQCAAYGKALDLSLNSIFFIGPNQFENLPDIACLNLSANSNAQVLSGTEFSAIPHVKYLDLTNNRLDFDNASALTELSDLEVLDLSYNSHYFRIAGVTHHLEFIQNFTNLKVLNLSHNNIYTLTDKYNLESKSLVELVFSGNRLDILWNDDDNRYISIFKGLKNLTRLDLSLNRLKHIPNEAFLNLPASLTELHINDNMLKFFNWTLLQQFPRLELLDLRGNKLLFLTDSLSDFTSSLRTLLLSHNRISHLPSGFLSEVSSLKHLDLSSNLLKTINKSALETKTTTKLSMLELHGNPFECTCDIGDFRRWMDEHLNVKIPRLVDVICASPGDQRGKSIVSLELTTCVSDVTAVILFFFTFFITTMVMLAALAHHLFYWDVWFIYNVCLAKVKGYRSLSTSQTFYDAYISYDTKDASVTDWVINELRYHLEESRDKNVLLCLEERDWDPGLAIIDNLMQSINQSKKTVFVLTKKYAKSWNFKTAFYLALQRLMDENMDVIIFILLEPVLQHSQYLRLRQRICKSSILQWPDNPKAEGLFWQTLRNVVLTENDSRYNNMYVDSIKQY
human TLR9, sequence (Q9NR96 26-1032): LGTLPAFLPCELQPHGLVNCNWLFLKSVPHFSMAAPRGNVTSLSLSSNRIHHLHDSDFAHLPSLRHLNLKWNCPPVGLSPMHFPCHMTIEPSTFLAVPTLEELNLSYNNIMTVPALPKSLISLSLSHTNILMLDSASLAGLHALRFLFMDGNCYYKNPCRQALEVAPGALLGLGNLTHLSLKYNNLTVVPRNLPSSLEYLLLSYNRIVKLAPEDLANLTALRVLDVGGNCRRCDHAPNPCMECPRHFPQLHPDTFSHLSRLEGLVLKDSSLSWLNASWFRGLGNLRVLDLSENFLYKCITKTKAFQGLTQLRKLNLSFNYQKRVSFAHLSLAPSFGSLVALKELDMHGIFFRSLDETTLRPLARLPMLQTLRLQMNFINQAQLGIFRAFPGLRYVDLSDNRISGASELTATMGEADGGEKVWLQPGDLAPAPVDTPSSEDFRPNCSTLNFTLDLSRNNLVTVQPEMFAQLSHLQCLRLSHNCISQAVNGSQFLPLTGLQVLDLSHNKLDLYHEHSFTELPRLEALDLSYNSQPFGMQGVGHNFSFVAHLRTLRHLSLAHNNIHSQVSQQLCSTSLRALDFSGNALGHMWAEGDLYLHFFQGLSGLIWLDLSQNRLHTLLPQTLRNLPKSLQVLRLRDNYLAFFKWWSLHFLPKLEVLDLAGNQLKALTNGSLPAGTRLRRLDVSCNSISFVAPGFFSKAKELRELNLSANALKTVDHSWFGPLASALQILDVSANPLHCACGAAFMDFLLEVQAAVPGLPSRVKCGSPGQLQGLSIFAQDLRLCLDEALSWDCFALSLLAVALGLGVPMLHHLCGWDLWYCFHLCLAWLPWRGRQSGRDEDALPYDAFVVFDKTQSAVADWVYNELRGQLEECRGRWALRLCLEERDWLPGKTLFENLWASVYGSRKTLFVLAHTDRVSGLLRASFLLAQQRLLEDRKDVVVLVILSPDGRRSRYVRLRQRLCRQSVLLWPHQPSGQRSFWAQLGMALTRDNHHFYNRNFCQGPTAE

| IC50 (human TLR7) | IC50 (human TLR8; [1]) | IC50 (human TLR9; [2]) | IC50 (human TLR8; [3]) | IC50 (human TLR9; [4]) | IC50 (human TLR8) | IC50 (human TLR9) | SMILES |
| --- | --- | --- | --- | --- | --- | --- | --- |
| 1.9 nM | 1.4 nM | 2480 nM | – | – | – | – | Cc1cc(-c2[nH]c3cnc(C4CCN(CC(C)(C)O)CC4)c(F)c3c2C(C)C)cn2ncnc12 [Example 128] |
| 13 nM | 39 nM | 282 nM | – | – | – | – | Cc1c(-c2[nH]c3cnc(C4CCC(N5CC6(COC6)C5)CC4)c(C)c3c2C(C)C)cn2ncnc2c1C (stereo not drawn) [Example 142] |
| 0.55 nM | 0.55 nM | 4050 nM | – | – | – | – | CCN(C)C1CCN(c2ncc3[nH]c(-c4cc(C)c5ncnn5c4)c(C(C)C)c3c2F)CC1 [Example 69] |
| 5.9 nM | – | – | 6.6 nM | 4170 nM | – | – | Cc1cc(-c2[nH]c3cnc(C4CCC(NC5(C)COC5)CC4)c(F)c3c2C(C)C)cn2ncnc12 (stereo not drawn) [Example 231] |
| 0.61 nM | – | – | – | – | 1.4 nM | 664 nM | COc1cc(-c2[nH]c3cnc(N4CCNCC4)c(Cl)c3c2C(C)C)cn2ncnc12 [Example 6, 6-(4-chloro-3-isopropyl-5-(piperazin-1-yl)-1H-pyrrolo[2,3-c]pyridin-2-yl)-8-methoxy-[1,2,4]triazolo[1,5-a]pyridine] |
| 13 nM | 32 nM | 640 nM | – | – | – | – | COc1cc(-c2[nH]c3cnc(C4CCC(NCC(C)(C)C)CC4)cc3c2C(C)C)cn2ncnc12 (stereo not drawn) [Example 310] |
| 2.1 nM | 2 nM | 1530 nM | – | – | – | – | Cc1cc(-c2[nH]c3cnc(C4CCN(C5CCOCC5)CC4)c(F)c3c2C(C)C)cn2ncnc12 [Example 187] |
| 16 nM | 12 nM | > 50000 nM | – | – | – | – | Cc1c(-c2[nH]c3cnc(N4CCN(C(=O)CN5CCOCC5)CC4)c(F)c3c2C(C)C)cn2ncnc2c1C [Example 421] |
| 0.36 nM | 0.42 nM | 1020 nM | – | – | – | – | Cc1c(N2CCC(NC3CCOCC3)CC2)ncc2[nH]c(-c3cc(C)c4ncnn4c3)c(C(C)C)c12 [Example 265] |
| 0.24 nM | 0.48 nM | 6500 nM | – | – | – | – | CCN(C)C1CCC(c2ncc3[nH]c(-c4cn5ncnc5c(C)c4C)c(C(C)C)c3c2F)CC1 (stereo not drawn) [Example 135] |
| 0.43 nM | 0.12 nM | 1960 nM | – | – | – | – | Cc1c(-c2[nH]c3cnc(C4CCC(NCC5(C)COC5)CC4)c(F)c3c2C(C)C)cn2ncnc2c1C (stereo not drawn) [Example 171] |
| 1.2 nM | 0.55 nM | 600 nM | – | – | – | – | Cc1c(-c2[nH]c3cnc(N4CCC(NC5CCOCC5)CC4)c(C)c3c2C(C)C)cn2ncnc2c1C [Example 205] |
| 4.8 nM | – | – | 11 nM | 12600 nM | – | – | COc1cc(-c2[nH]c3cnc(N4CCN(C5CCOCC5)C[C@H]4C)c(F)c3c2C(C)C)cn2ncnc12 [Example 452] |
| 13 nM | 26 nM | 608 nM | – | – | – | – | Cc1c(-c2[nH]c3cnc(C4CCNCC4)cc3c2C(C)C)cn2ncnc2c1C [Example 28] |
| 33 nM | 13 nM | > 50000 nM | – | – | – | – | COc1cc(-c2[nH]c3cnc(N4CCN(C5CCCOC5)CC4)c(F)c3c2C(C)C)cn2ncnc12 (single isomer, unassigned) [Example 387] |
| 0.38 nM | 0.65 nM | 905 nM | – | – | – | – | Cc1c(N2CCC(N(C)C(C)C)CC2)ncc2[nH]c(-c3cc(C)c4ncnn4c3)c(C(C)C)c12 [Example 124] |
| 0.61 nM | 1.7 nM | 1660 nM | – | – | – | – | Cc1cc(-c2[nH]c3cnc(C4CCC(N5CCC5)CC4)c(F)c3c2C(C)C)cn2ncnc12 (stereo not drawn) [Example 109] |
| 0.3 nM | 0.44 nM | 1570 nM | – | – | – | – | COc1cc(-c2[nH]c3cnc(C4CCC(N(C)C5COC5)CC4)c(F)c3c2C(C)C)cn2ncnc12 (stereo not drawn) [Example 197] |
| 1.6 nM | 9.9 nM | 3430 nM | – | – | – | – | COc1cc(-c2[nH]c3cnc(N4CCNC[C@H]4C)c(F)c3c2C(C)C)cn2ncnc12 [compound 354] |
| 14 nM | 0.73 nM | 19800 nM | – | – | – | – | Cc1c(-c2[nH]c3cnc(N4CCN(CC(=O)N(C)C)CC4)c(C)c3c2C(C)C)cn2ncnc2c1C [Example 352, 2-(4-(2-(7,8-dimethyl-[1,2,4]triazolo[1,5-a]pyridin-6-yl)-3-isopropyl-4-methyl-1H-pyrrolo[2,3-c]pyridin-5-yl)piperazin-1-yl)-N,N-dimethylacetamide] |
| 4.4 nM | 0.75 nM | 2650 nM | – | – | – | – | Cc1c(-c2[nH]c3cnc(C4CCC(NCC5(C)COC5)CC4)c(F)c3c2C(C)C)cn2ncnc2c1C (stereo not drawn) [Example 172] |
| 0.41 nM | 0.65 nM | 3610 nM | – | – | – | – | CNC1CCN(c2ncc3[nH]c(-c4cc(C)c5ncnn5c4)c(C(C)C)c3c2F)CC1 [Example 71] |
| 10 nM | 42 nM | 766 nM | – | – | – | – | CCN(C)C1CCC(c2ncc3[nH]c(-c4cc(OC)c5ncnn5c4)c(C(C)C)c3c2C)CC1 (stereo not drawn) [Example 116] |
| 0.37 nM | 0.43 nM | 1130 nM | – | – | – | – | COc1cc(-c2[nH]c3cnc(N4CCC(N(C)C(C)C)CC4)c(C)c3c2C(C)C)cn2ncnc12 [Example 86] |
| 41 nM | 44 nM | 2250 nM | – | – | – | – | COc1cc(-c2[nH]c3cnc(C4CCC(NCC(C)(C)OC)C4)cc3c2C(C)C)cn2ncnc12 (stereo not drawn) [Example 211] |
| 0.63 nM | 0.9 nM | 3160 nM | – | – | – | – | COc1cc(-c2[nH]c3cnc(N4CCC(NC5COC5)CC4)c(C)c3c2C(C)C)cn2ncnc12 [Example 137] |

| IC50 (human TLR7) | IC50 (human TLR8; [1]) | IC50 (human TLR9; [2]) | IC50 (human TLR8; [3]) | IC50 (human TLR9; [4]) | IC50 (human TLR8) | IC50 (human TLR9) | SMILES |
| --- | --- | --- | --- | --- | --- | --- | --- |
| 3.8 nM | 11 nM | 18800 nM | – | – | – | – | Cc1cc(-c2[nH]c3cnc(C4CCN(C5COC5)CC4)c(F)c3c2C(C)C)cn2ncnc12 [Example 182] |
| – | 3.9 nM | 3140 nM | – | – | – | – | COc1cc(-c2[nH]c3cnc(C4CCC(NC5(C)COC5)CC4)c(F)c3c2C(C)C)cn2ncnc12 (stereo not drawn) [Example 192] |
| 6.6 nM | 3.1 nM | 466 nM | – | – | – | – | Cc1c(-c2[nH]c3cnc(C4CCC(NCC5(C)COC5)CC4)c(C)c3c2C(C)C)cn2ncnc2c1C (stereo not drawn) [Example 204] |
| 3.4 nM | 5 nM | 2130 nM | – | – | – | – | Cc1cc(-c2[nH]c3cnc(C4CCC(N5CC6(COC6)C5)CC4)c(F)c3c2C(C)C)cn2ncnc12 (stereo not drawn) [Example 132] |
| 1.5 nM | 2.2 nM | 505 nM | – | – | – | – | COc1cc(-c2[nH]c3cnc(N4CCN(C(=O)CN(C)C)CC4)c(Cl)c3c2C(C)C)cn2ncnc12 [Example 304] |
| 2.2 nM | 1.9 nM | 2770 nM | – | – | – | – | Cc1cc(-c2[nH]c3cnc(N4CCC(N(C)CC(=O)N(C)C)CC4)c(F)c3c2C(C)C)cn2ncnc12 [Example 45] |
| 30 nM | 0.54 nM | > 50000 nM | – | – | – | – | Cc1c(-c2[nH]c3cnc(N4CCN(CC(C)(C)O)CC4)c(F)c3c2C(C)C)cn2ncnc2c1C [Example 426] |
| – | 0.59 nM | 2250 nM | – | – | – | – | COc1cc(-c2[nH]c3cnc(C4CCC(NC5(C)COC5)CC4)c(F)c3c2C(C)C)cn2ncnc12 (stereo not drawn) [Example 105] |
| – | 3 nM | 577 nM | – | – | – | – | COc1cc(-c2[nH]c3cnc(C4CCC(NCC(C)(C)O)CC4)c(F)c3c2C(C)C)cn2ncnc12 (stereo not drawn) [Example 195] |
| – | – | 506 nM | – | – | – | – | COc1cc(-c2[nH]c3cnc(C4CCC(N(C)C(C)C)C4)cc3c2C(C)C)cn2ncnc12 (stereo not drawn) [Example 145] |
| – | – | 2990 nM | – | – | – | – | COc1cc(-c2[nH]c3cnc(C4CCC(N(C)C(C)C)C4)cc3c2C(C)C)cn2ncnc12 (stereo not drawn) [Example 63] |
| – | – | 575 nM | – | – | – | – | COc1cc(-c2[nH]c3cnc(C4CCC(NC5CCOCC5)CC4)c(F)c3c2C(C)C)cn2ncnc12 (stereo not drawn) [Example 194] |
| 6.2 nM | 1.8 nM | – | – | – | – | – | Cc1c(-c2[nH]c3cnc(C4CCN(CC(=O)N(C)C)CC4)c(F)c3c2C(C)C)cn2ncnc2c1C [Example 22] |
| 0.98 nM | 1.6 nM | – | – | – | – | – | COc1cc(-c2[nH]c3cnc(C4CCC(N5CCC5)CC4)c(F)c3c2C(C)C)cn2ncnc12 (stereo not drawn) [Example 46] |
| – | 0.77 nM | 694 nM | – | – | – | – | COc1cc(-c2[nH]c3cnc(C4CCC(NCC(C)(C)O)CC4)c(F)c3c2C(C)C)cn2ncnc12 (stereo not drawn) [Example 74] |
| – | 973 nM | 13100 nM | – | – | – | – | Cc1cc(-c2[nH]c3cnc(C4CCNCC4)cc3c2C(C)C)cn2ncnc12 [Example 4, 6-(3-isopropyl-5-(piperidin-4-yl)-1h-pyrrolo[2,3-c]pyridin-2-yl)-8-methyl-[1,2,4]triazolo [1,5-a]pyridine] |
| – | 21 nM | 417 nM | – | – | – | – | COc1cc(-c2[nH]c3cnc(C4CCC(N5CC(OC)C5)CC4)c(C)c3c2C(C)C)cn2ncnc12 (stereo not drawn) [Example 62] |
| – | 7.7 nM | 437 nM | – | – | – | – | COc1cc(-c2[nH]c3cnc(C4CCC(NCC(C)(C)OC)CC4)c(C)c3c2C(C)C)cn2ncnc12 (stereo not drawn) [Example 207] |
| – | 1.5 nM | 2580 nM | – | – | – | – | COc1cc(-c2[nH]c3cnc(N4CCC(N(C)CC(C)(C)C)CC4)c(F)c3c2C(C)C)cn2ncnc12 [Example 47] |
| – | 13 nM | 260 nM | – | – | – | – | COc1cc(-c2[nH]c3cnc(C4CCC(NCC(C)(C)OC)CC4)c(C)c3c2C(C)C)cn2ncnc12 (stereo not drawn) [Example 206] |
| 4.9 nM | 4 nM | – | – | – | – | – | COc1cc(-c2[nH]c3cnc(N4CCN(CCS(C)(=O)=O)CC4)c(F)c3c2C(C)C)cn2ncnc12 [Example 362] |
| – | 9.6 nM | 664 nM | – | – | – | – | COc1cc(-c2[nH]c3cnc(C4CCC(N5CC(OC)C5)CC4)c(C)c3c2C(C)C)cn2ncnc12 (stereo not drawn) [Example 180] |
| – | – | 1280 nM | – | – | – | – | COc1cc(-c2[nH]c3cnc(C4CCC(NC5CCOCC5)CC4)c(F)c3c2C(C)C)cn2ncnc12 (stereo not drawn) [Example 160] |
| – | 3.7 nM | 43700 nM | – | – | – | – | COc1cc(-c2[nH]c3cnc(N4CCN(CC(=O)N5CCOCC5)CC4)c(F)c3c2C(C)C)cn2ncnc12 [Example 363] |
| – | – | 5290 nM | – | – | – | – | Cc1cc(-c2[nH]c3cnc(N4CCC(N(C)C(C)C)CC4)c(F)c3c2C(C)C)cn2ncnc12 [Example 68] |
